In patent US20240083897A1, “GCN2 MODULATING COMPOUNDS AND USES THEREOF” (HiberCell, Inc., priority 2021, published 2024):
Like-named read-outs stand apart in the source and are kept apart here.

Biological target: GCN2 (Homo sapiens (Human), UniProt Q9P2K8)
Test: TR-FRET biochemical assay for inhibition of GCN2
[1] = GCN2 2 nM, 100 nM GFP-eIF2a, 150 μM ATP, TR-FRET

Sequence of GCN2 (Q9P2K8 whole entry): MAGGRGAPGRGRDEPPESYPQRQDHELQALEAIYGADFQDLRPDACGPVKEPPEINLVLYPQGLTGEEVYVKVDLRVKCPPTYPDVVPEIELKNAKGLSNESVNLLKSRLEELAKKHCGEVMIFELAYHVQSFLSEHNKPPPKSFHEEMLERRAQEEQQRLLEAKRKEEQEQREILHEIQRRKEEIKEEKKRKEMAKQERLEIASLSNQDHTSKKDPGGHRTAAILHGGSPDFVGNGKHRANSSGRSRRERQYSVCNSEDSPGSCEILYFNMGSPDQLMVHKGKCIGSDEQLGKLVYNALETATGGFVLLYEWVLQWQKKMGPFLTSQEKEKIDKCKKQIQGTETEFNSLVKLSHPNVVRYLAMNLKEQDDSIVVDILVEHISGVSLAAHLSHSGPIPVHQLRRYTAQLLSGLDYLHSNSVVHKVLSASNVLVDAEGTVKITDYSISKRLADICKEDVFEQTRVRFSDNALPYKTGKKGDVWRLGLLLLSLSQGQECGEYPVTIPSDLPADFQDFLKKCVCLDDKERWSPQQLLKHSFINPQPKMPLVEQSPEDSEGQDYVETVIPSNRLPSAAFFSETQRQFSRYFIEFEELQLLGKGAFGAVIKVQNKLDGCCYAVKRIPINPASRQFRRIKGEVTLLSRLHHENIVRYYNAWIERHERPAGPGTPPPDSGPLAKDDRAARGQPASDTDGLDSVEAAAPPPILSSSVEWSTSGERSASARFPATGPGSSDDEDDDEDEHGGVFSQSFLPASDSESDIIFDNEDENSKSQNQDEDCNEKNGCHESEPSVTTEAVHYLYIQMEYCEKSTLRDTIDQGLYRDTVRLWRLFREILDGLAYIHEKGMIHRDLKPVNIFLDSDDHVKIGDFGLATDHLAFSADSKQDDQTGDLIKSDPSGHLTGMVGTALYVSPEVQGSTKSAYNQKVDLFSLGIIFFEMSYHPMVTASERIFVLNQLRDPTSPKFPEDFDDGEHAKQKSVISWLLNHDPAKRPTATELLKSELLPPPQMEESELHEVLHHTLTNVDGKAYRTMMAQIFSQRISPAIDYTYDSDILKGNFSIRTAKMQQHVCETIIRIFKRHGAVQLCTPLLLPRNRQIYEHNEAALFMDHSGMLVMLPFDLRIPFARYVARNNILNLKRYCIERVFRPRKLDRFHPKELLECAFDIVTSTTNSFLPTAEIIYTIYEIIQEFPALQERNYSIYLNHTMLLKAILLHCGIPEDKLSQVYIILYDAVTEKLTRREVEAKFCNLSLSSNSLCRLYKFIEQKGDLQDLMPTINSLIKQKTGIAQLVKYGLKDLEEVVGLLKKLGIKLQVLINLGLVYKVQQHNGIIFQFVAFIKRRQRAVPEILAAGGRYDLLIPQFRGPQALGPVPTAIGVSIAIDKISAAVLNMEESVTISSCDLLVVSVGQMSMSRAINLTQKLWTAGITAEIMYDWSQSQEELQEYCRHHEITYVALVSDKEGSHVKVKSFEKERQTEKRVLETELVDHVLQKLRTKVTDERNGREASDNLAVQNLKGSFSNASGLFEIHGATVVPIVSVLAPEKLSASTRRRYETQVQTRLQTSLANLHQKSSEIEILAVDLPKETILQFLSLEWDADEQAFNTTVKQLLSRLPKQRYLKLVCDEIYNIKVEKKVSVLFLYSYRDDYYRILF

| SMILES | IC50 [1] [nM] | IC50 [nM] |
| --- | --- | --- |
| CNC(=O)c1ncn2c1CN(C)[C@H](c1c(F)ccc(NS(=O)(=O)c3cc(Cl)cnc3OC)c1F)C2 (single isomer, unassigned) [Compound 33-1] | > 1000 |  |
| CNC(=O)c1ncn2c1CN(C)[C@@H](c1c(F)ccc(NS(=O)(=O)c3cc(Cl)cnc3OC)c1F)C2 (single isomer, unassigned) [Compound 33-2] |  | 500 to 1000 |
| Cc1ncc(Cl)cc1S(=O)(=O)Nc1ccc(F)c([C@H]2CCc3c(-c4ncc[nH]4)ncn3C2)c1F (single isomer, unassigned) [Compound 84-1] | < 50 |  |
| Cc1ncc(Cl)cc1S(=O)(=O)Nc1ccc(F)c([C@@H]2CCc3c(-c4ncc[nH]4)ncn3C2)c1F (single isomer, unassigned) [Compound 84-2] | < 50 |  |
| CNC(=O)c1ncn2c1CCC(c1c(Cl)ccc(NS(=O)(=O)c3cc(F)cnc3OC)c1F)C2 (stereo in doubt) [Compound 155-1, (6R)-6-[6-chloro-2-fluoro-3-(5-fluoro-2-methoxypyridine-3-sulfonamido)phenyl]-N-methyl-5H,6H,7H,8H-imidazo[1,5-a]pyridine-1-carboxamide] | < 50 |  |
| CNC(=O)c1ncn2c1CCC(c1c(Cl)ccc(NS(=O)(=O)c3cc(F)cnc3OC)c1F)C2 (stereo in doubt) [Compound 155-2, (6S)-6-[6-chloro-2-fluoro-3-(5-fluoro-2-methoxypyridine-3-sulfonamido)phenyl]-N-methyl-5H,6H,7H,8H-imidazo[1,5-a]pyridine-1-carboxamide] |  | 50 to 500 |
| CNC(=O)c1ncn2nc(-c3c(F)ccc(NS(=O)(=O)c4cc(Cl)cnc4C)c3F)ccc12 [Compound 5, 2-[3-(5-chloro-2-methylpyridine-3-sulfonamido)-2,6-difluorophenyl]-N-methylimidazo[1,5-b]pyridazine-5-carboxamide] | < 50 |  |
| CNC(=O)c1ncn2cc(-c3c(F)ccc(NS(=O)(=O)c4cc(C#N)cnc4C)c3F)ccc12 [Compound 9, 6-[3-(5-cyano-2-methylpyridine-3-sulfonamido)-2,6-difluorophenyl]-N-methylimidazo[1,5-a]pyridine-1-carboxamide] | < 50 |  |
| CNC(=O)c1ncn2cc(-c3c(F)ccc(NS(=O)(=O)c4cc(F)cc5c4CCC5O)c3F)ccc12 (centres unmarked) [Compound 10, 6-[2,6-difluoro-3-(6-fluoro-1-hydroxy-2,3-dihydro-1H-indene-4-sulfonamido)phenyl]-N-methylimidazo[1,5-a]pyridine-1-carboxamide] | < 50 |  |
| CNC(=O)c1ncn2c(C)c(-c3c(F)ccc(NS(=O)(=O)c4cc(Cl)cnc4OC)c3F)ccc12 [Compound 11, 6-[3-(5-chloro-2-methoxypyridine-3-sulfonamido)-2,6-difluorophenyl]-N,5-dimethyl imidazo[1,5-a]pyridine-1-carboxamide] |  | 50 to 500 |
| CNC(=O)c1ncn2nc(-c3c(F)ccc(NS(=O)(=O)c4cc(F)cnc4C)c3F)ccc12 [Compound 12, 2-[2,6-difluoro-3-(5-fluoro-2-methylpyridine-3-sulfonamido)phenyl]-N-methylimidazo[1,5-b]pyridazine-5-carboxamide] | < 50 |  |
| CNC(=O)c1ncn2cc(-c3c(F)ccc(NS(=O)(=O)c4cc(C(F)(F)F)cnc4OC)c3F)ccc12 [Compound 13, 6-[2,6-difluoro-3-[2-methoxy-5-(trifluoromethyl)pyridine-3-sulfonamido]phenyl]-N-methylimidazo[1,5-a]pyridine-1-carboxamide] | < 50 |  |
| CNC(=O)c1ncn2c(OC)c(-c3c(F)ccc(NS(=O)(=O)c4cc(Cl)cnc4OC)c3F)ccc12 [Compound 15, 6-[3-(5-chloro-2-methoxypyridine-3-sulfonamido)-2,6-difluorophenyl]-5-methoxy-N-methylimidazo[1,5-a]pyridine-1-carboxamide] | > 1000 |  |
| CNC(=O)c1ncn2cc(-c3c(F)ccc(NS(=O)(=O)c4cc(Cl)cnc4OC)c3F)c(OC)nc12 [Compound 17, 3-[3-(5-chloro-2-methoxypyridine-3-sulfonamido)-2,6-difluorophenyl]-2-methoxy-N-methylimidazo[1,5-a]pyrimidine-8-carboxamide] |  | 50 to 500 |
| COc1ncc(F)cc1S(=O)(=O)Nc1ccc(F)c(-c2ccc3c(-c4ncc[nH]4)ncn3c2)c1F [Compound 18, N-[2,4-difluoro-3-[1-(1H-imidazol-2-yl)imidazo[1,5-a]pyridin-6-yl]phenyl]-5-fluoro-2-methoxypyridine-3-sulfonamide] | < 50 |  |
| Cc1ncc(F)cc1S(=O)(=O)Nc1ccc(F)c(-c2ccc3c(-c4ncc[nH]4)ncn3c2)c1F [Compound 19, N-[2,4-difluoro-3-[1-(1H-imidazol-2-yl)imidazo[1,5-a]pyridin-6-yl]phenyl]-5-fluoro-2-methylpyridine-3-sulfonamide] | < 50 |  |

| SMILES | IC50 [1] [nM] | IC50 [nM] |
| --- | --- | --- |
| COc1ncc(C#N)cc1S(=O)(=O)Nc1ccc(F)c(-c2ccc3c(-c4ncc[nH]4)ncn3c2)c1F [Compound 20, 5-cyano-N-[2,4-difluoro-3-[1-(1H-imidazol-2-yl)imidazo[1,5-a]pyridin-6-yl]phenyl]-2-methoxypyridine-3-sulfonamide] | < 50 |  |
| CNC(=O)c1ncc2c(F)c(-c3c(F)ccc(NS(=O)(=O)c4cc(Cl)cnc4OC)c3F)ccn12 [Compound 21, 7-[3-(5-chloro-2-methoxypyridine-3-sulfonamido)-2,6-difluorophenyl]-8-fluoro-N-methylimidazo[1,5-a]pyridine-3-carboxamide] | < 50 |  |
| CNC(=O)c1ncn2cc(-c3c(F)ccc(NS(=O)(=O)c4cc(Cl)cnc4OC)c3F)c(=O)n(C)c12 [Compound 22, 3-[3-(5-chloro-2-methoxypyridine-3-sulfonamido)-2,6-difluorophenyl]-N,1-dimethyl-2-oxoimidazo[1,5-a]pyrimidine-8-carboxamide] |  | 50 to 500 |
| CNC(=O)c1ncn2cc(-c3c(F)ccc(NS(=O)(=O)c4cc(C#N)cc(C(F)(F)F)c4)c3F)ccc12 [Compound 23, 6-[3-[3-cyano-5-(trifluoromethyl)benzenesulfonamido]-2,6-difluorophenyl]-N-methylimidazo[1,5-a]pyridine-1-carboxamide] |  | 50 to 500 |
| CNC(=O)c1ncn2c(NC)c(-c3c(F)ccc(NS(=O)(=O)c4cc(Cl)cnc4OC)c3F)ccc12 [Compound 24, 6-[3-(5-chloro-2-methoxypyridine-3-sulfonamido)-2,6-difluorophenyl]-N-methyl-5-(methylamino)imidazo[1,5-a]pyridine-1-carboxamide] | > 1000 |  |
| Cc1ncc(Cl)cc1S(=O)(=O)Nc1ccc(F)c(-c2ccc3c(-c4ncc[nH]4)ncn3c2)c1F [Compound 25, 5-chloro-N-[2,4-difluoro-3-[1-(1H-imidazol-2-yl)imidazo[1,5-a]pyridin-6-yl]phenyl]-2-methylpyridine-3-sulfonamide] | < 50 |  |
| COc1ncc(Cl)cc1S(=O)(=O)Nc1ncc(F)c(-c2ccc3c(-c4ncc[nH]4)ncn3c2)c1F [Compound 26, 5-chloro-N-[3,5-difluoro-4-[1-(1H-imidazol-2-yl)imidazo[1,5-a]pyridin-6-yl]pyridin-2-yl]-2-methoxypyridine-3-sulfonamide] | < 50 |  |
| CNC(=O)c1ncn2c1CC[C@H](c1c(F)ccc(NS(=O)(=O)c3cc(Cl)cnc3OC)c1F)C2 [Compound 27-1, (6R)-6-[3-(5-chloro-2-methoxypyridine-3-sulfonamido)-2,6-difluorophenyl]-N-methyl-5H,6H,7H,8H-imidazo[1,5-a]pyridine-1-carboxamide] |  | 50 to 500 |
| CNC(=O)c1ncn2c1CC[C@@H](c1c(F)ccc(NS(=O)(=O)c3cc(Cl)cnc3OC)c1F)C2 [Compound 27-2, (6S)-6-[3-(5-chloro-2-methoxypyridine-3-sulfonamido)-2,6-difluorophenyl]-N-methyl-5H,6H,7H,8H-imidazo[1,5-a]pyridine-1-carboxamide] |  | 50 to 500 |
| O=S(=O)(Nc1ccc(F)c(-c2ccc3c(-c4ncc[nH]4)ncn3c2)c1F)c1cc(F)cc2c1CCC2O (centres unmarked) [Compound 28, N-[2,4-difluoro-3-[1-(1H-imidazol-2-yl)imidazo[1,5-a]pyridin-6-yl]phenyl]-6-fluoro-1-hydroxy-2,3-dihydro-1H-indene-4-sulfonamide] | < 50 |  |
| COc1ncc(Cl)cc1S(=O)(=O)Nc1ccc(F)c(-c2ccc3c(-c4nnc[nH]4)ncn3c2)c1F [Compound 29, 5-chloro-N-[2,4-difluoro-3-[1-(4H-1,2,4-triazol-3-yl)imidazo[1,5-a]pyridin-6-yl]phenyl]-2-methoxypyridine-3-sulfonamide] |  | < 50 |
| CNC(=O)c1ncc2cc(-c3c(F)ccc(NS(=O)(=O)c4cc(Cl)cnc4OC)c3F)ccn12 [Compound 30, 7-[3-(5-chloro-2-methoxypyridine-3-sulfonamido)-2,6-difluorophenyl]-N-methylimidazo[1,5-a]pyridine-3-carboxamide] | < 50 |  |
| COc1ncc(Cl)cc1S(=O)(=O)Nc1ccc(F)c(-c2cn3cnc(-c4ncc[nH]4)c3cn2)c1F [Compound 31, 5-chloro-N-[2,4-difluoro-3-[1-(1H-imidazol-2-yl)imidazo[1,5-a]pyrazin-6-yl]phenyl]-2-methoxypyridine-3-sulfonamide] | < 50 |  |
| COc1ncc(Cl)cc1S(=O)(=O)Nc1ccc(F)c(-c2ccc3c(-c4ccn[nH]4)ncn3c2)c1F [Compound 32, 5-chloro-N-[2,4-difluoro-3-[1-(2H-pyrazol-3-yl)imidazo[1,5-a]pyridin-6-yl]phenyl]-2-methoxypyridine-3-sulfonamide] | < 50 |  |
| COc1ncc(Cl)cc1S(=O)(=O)Nc1ccc(F)c(-c2ccc3c(-c4cnn[nH]4)ncn3c2)c1F [Compound 34, 5-chloro-N-[2,4-difluoro-3-[1-(3H-1,2,3-triazol-4-yl)imidazo[1,5-a]pyridin-6-yl]phenyl]-2-methoxypyridine-3-sulfonamide] | < 50 |  |
| COc1ncc(Cl)cc1S(=O)(=O)Nc1ccc(F)c(-c2ccn3c(-c4ncc[nH]4)ncc3c2)c1F [Compound 35, 5-chloro-N-[2,4-difluoro-3-[3-(1H-imidazol-2-yl)imidazo[1,5-a]pyridin-7-yl]phenyl]-2-methoxypyridine-3-sulfonamide] | < 50 |  |
